Experimental data from US8329681B2, “Methods and compositions for the efficient delivery of therapeutic agents to cells and animals” (University of Massachusetts, priority 2005, dated 2012).

What was measured:
FL83B cells [1] = assay: Cell Titer 96 AQueous One Solution (MTS) cytotoxicity assay; format: cell-based, rat; settings: liposomal formulation alone or in combination with DOPE and DOPC as co-lipid
Protocol: (§1) Alternatively, the cytotoxicity of the lipids was measured using the Cell Titer 96® AQueous One Solution Cell Proliferation Assay. The Cell Titer 96® AQueous One Solution Reagent contains a tetrazolium compound [3-(4,5-dimethylthiazol-2-yl)-5-(3-carboxymethoxyphenyl)-2(4-sulfophenyl)-2H-tetrazolium, inner salt; MTS^17] and an electron coupling reagent (phenazine ethosulfate; PES). The cytotoxicity assay was performed in 96 well plates by maintaining the ratio of number of cells to amount of cationic lipid constant as in transfection experiments. MTS was added 24 hours after transfection. Cell Titer 96® AQueous One Solution Reagent (20 ul) was pipetted into each well of the 96-well assay plate containing the samples in 100 μl of culture medium. In case of HeLa cells the plates were incubated for 2 hours, whereas for FL83B cells, plates were incubated for 4 hours at 37° C. in a humidified, 5% CO2 atmosphere. Absorbance was then recorded at 490 nm.
(§2) In a second experiment, FL83B and HeLa cells were plated on 96 well plate 18 hours prior to transfection. Then, liposome was added to each well and incubated for 24 hours. Thereafter, Cell Titer 96® AQueous One Solution Reagent was added and incubated for 4 hours. The MTS tetrazolium compound (Owen's reagent) is bioreduced by viable cells into a colored formazan product that is soluble in tissue culture […]. The absorbance of the formazan was measured at 490 nm with a 96 well plate reader.

HeLa cells [2] = assay: as above; format: cell-based, human; settings: liposomal formulation alone or in combination with DOPE and DOPC as co-lipid
Protocol: as §1, §2

A549 cells = assay: Transfection of pSV-β-gal plasmid, β-galactosidase reporter activity; format: cell-based, human
Protocol: (§3) Cationic lipids and the co-lipids in chloroform were dried under a stream of N2 gas and vacuum-desiccated for a minimum of 6 h to remove residual organic solvent. The dried lipid film was hydrated in sterile deionized water at cationic lipid concentration of 1 mM for a minimum of 12 h. Liposomes were vortexed to remove any adhering lipid film and probe sonicated until a clear translucent solution is formed. The pDNA solution was added to the liposomes, mixed properly by pipeting and shaken on a rotary shaker (15-30 mins.) before use.
(§4) Cells were seeded at a density of 20,000 (for HeLa cells), 16,000 (for A-549 cells), 8,000 (for FL83B cells) per well in a 96-well plate 18-24 h before transfection. An amount of 0.30 μg of pDNA was complexed with varying amounts of lipids (to give +/− ratios of 0.3:1, 1:1, 3:1 and 9:1) in plain OPTIMEM (total volume made up to 100 μl) and then shaken on a rotary shaker at room temperature for 20-30 minutes. The complexes were then added to the cells. After 5 h of incubation, 200 μl of complete medium containing 10% FBS in DMEM for HeLa and 10% FBS in F-12K for FL83B and A549 was added to the cells. The medium was changed after 24 h and the reporter gene activity was estimated 48 h after transfection. Cells were washed with PBS (100 μl) and lysed in […] lysis buffer (5× reporter lysis buffer diluted to 1×, working concentration). The β-galactosidase activity per well was estimated by adding 50 μl of 2× substrate solution (1.33 mg/ml of ONPG, 0.2 M sodium phosphate, pH 7.15 and 2 mM magnesium chloride) to the lysate in a 96-well plate. Absorbance of the product ortho-nitrophenol was measured at 420 nm. The absorbance values reported are the average values from two replicate experiments performed in the same plate on the same day. Each transfection experiment was performed three times on three different days to control for variations in transfection efficiency.
(§5) Briefly, the efficacy of various lipid formulations were tested in three cell lines A-549, FL83B and HeLa cells and the transfection efficiencies of the cationic liposomal formulations were compared with a commercially available transfection reagent (e.g., Lipofectamine 2000).

HeLa cells [3] = assay: as above; format: cell-based, human
Protocol: as §3, §4, §5

FL83B cells [4] = assay: as above; format: cell-based, rat
Protocol: as §3, §4, §5

CDK9 expression = assay: In vivo delivery of CDK9 siRNA with liposome by tail vein injection, CDK9 expression in spleen; design: species or system BALB/c mice; settings: Cy3-labeled CDk9 siRNA (25 μg) and liposome (125 μg), repeated 4 and 8 h later, within the initial 24 h after treatment
Protocol: Total RNA was extracted from tissues or cultured cells using Trizol (Invitrogen, Carlsbad, Calif.), and real-time RT-PCR for CDK9 and GAPDH mRNA quantification was carried out using 200 ng of total RNA and the QuantiTect SYBR Green RT-PCR Kit (Qiagen, Valencia, Calif.) according to the manufacturer's instructions. The ratio of CDK9 and GAPDH mRNA was calculated and expressed as a group average relative to the control group. The specific probe for detection of CDK9 mRNA levels was designed to the following regions of the CDK9 mRNA ORF, the forward primer 5′ TCGGACCAA AGCCTCACCGTATAA 3′, the reverse primer 5′ […] TTG 3′
Male BALB/c mice, 6-8 weeks of age and weighting 20-22 g, were purchased form the Jackson Laboratory (Bar Harbor, Me.). Synthetic siRNA were delivered in vivo using following method. For each mice 25 μg of siRNA in 100 μl of HEPES Buffered Saline (20 mM HEPES, 150 mM NaCl, pH 7.4) was transferred into a sterile tube. In a separate sterile tube 125 μg of liposome was mixed with 200 μl HEPES Buffered Saline. The siRNA solution was transferred to the tube containing liposome solution and then incubated at room temperature for 20 minutes. 200 μl of the complexes was injected via the tail vein, using a 1-ml syringe and 27-gauge needle. The injection was repeated 4 and 8 h later. Control mice were injected with an equal volume of liposome. At 24 h after the last injection, the mice were sacrificed and tissues were harvested for further analysis. CDK9 expression level was normalized with GAPDH and then compared to those obtained from control animals and shown as percent expression. The data represent the mean value +/− SD of three to five mice in each group.
Briefly, the ability of the new synthesized liposome to deliver siRNA in mice was investigated. BALB/c mice were administrated with complexes of Cy3-labeled CDk9 siRNA (25 μg) and liposome (125 μg) via normal pressure tail vein injection. The injection was repeated 4 and 8 h later. Control mice were administrated with an equal amount of liposome. […]

[5] = system: A-549, FL83B and HeLa cells; assay: Transfection of pSV-β-gal plasmid, overall statement without cell line; format: cell-based; settings: alone without any co-lipids
Protocol: as §4, with “efficiency. […]” for “efficiency.”

FL83B cells [6] = assay: Cell Titer-Blue cell viability assay, cytotoxicity of liposomes; format: cell-based, rat; settings: 50 μg/ml, 24 h incubation
Protocol: The Cell Titer-Blue Cell Viability Assay Kit (Promega, Madison, Wis.) was applied to detect and measure cytotoxicity in FL83B cells according to the manufacturer's instructions. Briefly, […] cells were plated on 96-well plate in F-12K medium (ATCC, Manassas, Va.) with 10% fetal bovine serum at 37° C. in 5% CO2. At 24 h., liposomes were added to each well at various concentrations and incubated for 24 h at 37° C. in 5% CO2. Afterwards, the Cell Titer-Blue Reagent was added to each well at 20 μl/well and incubated for 4 h at 37° C. in 5% CO2. The fluorescent signal was recorded by a fluorescent reader (560/590 nm).
Briefly, in a first experiment, the ability of eukaryotic cells to survive exposure to various lipids at doses of 20 and 50 μg/ml was examined. Fl83B cells were plated on 96-well plate for 24 hours. Typically liposomes were added to well and incubated at 37° C. for 24 hours. Thereafter, Cell Titer-Blue Reagent (resazurin) was added and incubated for 4 hours. Resazurin was used as indicator to measure the metabolic capacity of cells. Viable cells retain the ability to reduce resazurin into resorufin, which is highly fluorescent. […] The fluorescence in each well was measured by fluorescent reader.
All cytotoxicity measurements were performed after 24 h of incubation with new synthesizes liposome without medium changes. […]

[7] = alone and in combination with DOPE and DOPC, lipid:DNA charge ratio 9.0:1 to 0.3:1
[8] = in combination with DOPE and DOPC
[9] = alone or in combination with DOPE and DOPC, lipid:DNA charge ratio 9.0:1 to 0.3:1.0
[10] = lipid:DNA charge ratio 9.0:1 to 0.3:1.0

`CCCCCCCCCCCCCC(=O)OC(COC(=O)CCC(=O)O[C@H]1CC[C@@]2(C)C(=CC[C@H]3[C@@H]4CC[C@H]([C@H](C)CCCC(C)C)[C@@]4(C)CC[C@@H]32)C1)C[N+](C)(C)C.[I-]` (some centres unmarked) [Lipid 7, N,N,N-Trimethyl-N-[2-(tetradecanoyloxy),3-succinyloxy(4-cholesteryloxy)-propyl]ammonium iodide] was tested. Which “cytotoxicity as compared to a control” value (FL83B cells [1]) did it give?
Its value is “non-toxic”.

And the “cytotoxicity as compared to a control” value (HeLa cells [2])?
Its value is “non-toxic”.

What about the “transfection efficiency compared with Lipofectamine 2000” value (A549 cells; [7]) of the same molecule?
Its value is “comparable”.

What about the “transfection efficiency compared with Lipofectamine 2000” value (HeLa cells [3]; [7]) of the same molecule?
The value was “more than one fold less”.

What about the “transfection efficiency compared with Lipofectamine 2000” value (FL83B cells [4]; [7]) of the same molecule?
Its value is “comparable”.

And the “CDK9 expression level in the spleen decreased by” value (CDK9 expression)?
Its value is 40%.

What about the “transfection efficiency of lipid alone compared with lipid in combination with DOPE and DOPC” value [5] of the same molecule?
The value was “about as efficient”.

Which cell death (FL83B cells [6]) does the source give for `CCCCCCCCCCCCCC(=O)O[C@H](COC(=O)CCC(=O)O[C@H]1CC[C@@]2(C)C(=CC[C@H]3[C@@H]4CC[C@H]([C@H](C)CCCC(C)C)[C@@]4(C)CC[C@@H]32)C1)C[N+](C)(CCO)CCO.[I-]` [Lipid 9] here?
Its cell death is 12%.

What about the “transfection efficiency compared with Lipofectamine 2000” value (A549 cells; [8]) of the same molecule?
Its value is “comparable”.

And the “transfection efficiency, fold less than Lipofectamine 2000” value (HeLa cells [3]; [8])?
The value was “more than 1 fold”.

What about the “transfection efficiency, fold less than Lipofectamine 2000” value (FL83B cells [4]; [8]) of the same molecule?
The value was “more than 1 fold”.

And the “CDK9 expression level in the spleen decreased by” value (CDK9 expression)?
The value was 30%.

What does the source list for `CC(C)CCC[C@@H](C)[C@H]1CC[C@H]2[C@@H]3CC=C4CC(OC(=O)CCC(=O)OCC(O)C[N+](C)(C)C)CC[C@]4(C)[C@H]3CC[C@]12C` (some centres unmarked) [Lipid 12, N,N,N-Trimethyl-N-[2-hydroxy, 3-succinyloxy(4-cholesteryloxy)-propyl]ammonium iodide]?
transfection efficiency compared with Lipofectamine 2000 (A549 cells; lipid:DNA charge ratio 0.3:1): comparable; transfection efficiency compared with Lipofectamine 2000 (HeLa cells [3]; lipid:DNA charge ratio 0.3:1): comparable; transfection efficiency compared with Lipofectamine 2000 (FL83B cells [4]; lipid:DNA charge ratio 0.3:1): comparable

What does the source list for `CC[N+](C)(C)CCNC(=O)OC1CC[C@@]2(C)C(=CC[C@H]3[C@@H]4CC[C@H]([C@H](C)CCCC(C)C)[C@@]4(C)CC[C@@H]32)C1` (some centres unmarked) [Lipid 14]?
transfection efficiency, fold less than Lipofectamine 2000 (A549 cells; alone or in combination with DOPE and DOPC, lipid:DNA charge ratios 1:1 and 0.3:1): about 1.5 fold; transfection efficiency compared with Lipofectamine 2000 (HeLa cells [3]; in combination with DOPC, lipid:DNA charge ratio 0.3:1): almost comparable; transfection efficiency, fold less than Lipofectamine 2000 (HeLa cells [3]; in combination with DOPE): 2.5 fold; transfection efficiency, fold less than Lipofectamine 2000 (HeLa cells [3]; lipid alone, charge ratio 9:1 to 3:1): more than 1.5 fold; transfection efficiency compared with Lipofectamine 2000 (FL83B cells [4]; alone, charge ratio 3:1): comparable; transfection efficiency compared with Lipofectamine 2000 (FL83B cells [4]; in combination with DOPC): less efficient; transfection efficiency compared with Lipofectamine 2000 (FL83B cells [4]; in combination with DOPE, charge ratio 9:1): comparable

For `CC(C)CCC[C@@H](C)[C@H]1CC[C@H]2[C@@H]3CC=C4C[C@@H](OC(=O)NCC[N+](C)(C)CCCCCCCCCCCO)CC[C@]4(C)[C@H]3CC[C@]12C.[Br-]` [Lipid 16], which “cytotoxicity as compared to a control” value (FL83B cells [1]) is on record?
Its value is “non-toxic”.

What about the “cytotoxicity as compared to a control” value (HeLa cells [2]) of the same molecule?
The value was “non-toxic”.

And the “transfection efficiency compared with Lipofectamine 2000” value (A549 cells; [9])?
Its value is “about a little more than one fold”.

And the “transfection efficiency of lipid alone compared with combination with co-lipids DOPE and DOPC” value (A549 cells; [10])?
The value was “almost the same”.

And the “transfection efficiency, fold less active than Lipofectamine 2000” value (HeLa cells [3]; [9])?
The value was “about 1.5 fold”.

And the “transfection efficiency of lipid alone compared with combination with co-lipids DOPE and DOPC” value (HeLa cells [3]; [10])?
Its value is “almost the same”.

And the “transfection efficiency compared with Lipofectamine 2000” value (FL83B cells [4]; alone or in combination with co-lipids)?
Its value is “about two fold less”.
